# Results: patent US9113629B2, “4-amino-6-(4-substituted-phenyl)-picolinates and 6-amino-2-(4-substituted-phenyl)-pyrimidine-4-carboxylates and their use as herbicides” (DOW AGROSCIENCES LLC, priority 2013, dated 2015)
# Like-named read-outs stand apart in the source and are kept apart here.
# Assays:
# [1] = tested on: Key Broadleaf Weed and Crop Species; assay: Post-emergent Test II herbicidal activity (Table 5); assay type: in vivo; details: post-emergence, 336 h, post-emergent, 14 days after application; for pest or weed control at 70 g/ha: 70 g ai/ha; for pest or weed control at 140 g/ha: 140 g ai/ha
# Outline: (§1)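 Greenhouse post-emergent assay: seedlings (first/second true leaf) in Metro-Mix 360 were sprayed at 187 L/ha at a top rate plus twofold dilutions down to 1/16×; solvent-blank controls were included. Percent visual injury was read at 14 d.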
# [2] = tested on: Key Grass and Sedge Weeds as well as Grass Crops; assay: Post-emergent Test II herbicidal activity (Table 6); assay type: in vivo; details: post-emergence, 336 h; for pest or weed control at 70 g/ha: application rate 70 g ai/ha; for pest or weed control at 140 g/ha: application rate 140 g ai/ha
# Outline: as §1
# [3] = ABUTH: velvetleaf (Abutilon theophrasti), read-out: Visual Growth Reduction (%) 14 Days After Application ABUTH
# [4] = AMARE: redroot pigweed (Amaranthus retroflexus), read-out: Visual Growth Reduction (%) 14 Days After Application AMARE
# [5] = BRSNN: oilseed-rape, canola (Brassica napus), read-out: Visual Growth Reduction (%) 14 Days After Application BRSNN
# [6] = CHEAL: lambsquarters (Chenopodium album), read-out: Visual Growth Reduction (%) 14 Days After Application CHEAL
# [7] = EPHHL: wild poinsettia (Euphorbia heterophylla), read-out: Visual Growth Reduction (%) 14 Days After Application EPHHL
# [8] = HELAN: sunflower (Helianthus annuus), read-out: Visual Growth Reduction (%) 14 Days After Application HELAN
# [9] = VIOTR: wild pansy (Viola tricolor), read-out: Visual Growth Reduction (%) 14 Days After Application VIOTR
# [10] = Triticum aestivum, TRZSS (wheat), read-out: Visual Growth Reduction (%) 14 Days After Application, TRZSS
# [11] = CYPES: yellow nutsedge (Cyperus esculentus), read-out: Visual Growth Reduction (%) 14 Days After Application, CYPES
# [12] = DIGSA: crabgrass (Digitaria sanguinalis), read-out: Visual Growth Reduction (%) 14 Days After Application, DIGSA
# [13] = ECHCG: barnyardgrass (Echinochloa crus-galli), read-out: Visual Growth Reduction (%) 14 Days After Application, ECHCG
# [14] = ORYSA: rice (Oryza sativa), read-out: Visual Growth Reduction (%) 14 Days After Application, ORYSA
# [15] = SETFA: giant foxtail (Setaria faberi), read-out: Visual Growth Reduction (%) 14 Days After Application, SETFA
# [16] = SORVU: grain sorghum (Sorghum vulgare), read-out: Visual Growth Reduction (%) 14 Days After Application, SORVU
# [17] = ZEAMX: maize, corn (Zea mays), read-out: Visual Growth Reduction (%) 14 Days After Application, ZEAMX
smiles,measurement,setting,value
"Nc1cc(-c2ccc(Br)c(F)c2)nc(C(=O)O)c1Cl [Compound 110, 4-Amino-6-(4-bromo-3-fluorophenyl)-3-chloropicolinic acid]",pest or weed control at 70 g/ha,[1]; [3],95 to 100%
same,pest or weed control at 140 g/ha,[1]; [3],95 to 100%
same,pest or weed control at 70 g/ha,[1]; [4],95 to 100%
same,pest or weed control at 140 g/ha,[1]; [4],95 to 100%
same,pest or weed control at 70 g/ha,[1]; [5],95 to 100%
same,pest or weed control at 140 g/ha,[1]; [5],95 to 100%
same,pest or weed control at 70 g/ha,[1]; [6],95 to 100%
same,pest or weed control at 140 g/ha,[1]; [6],95 to 100%
same,pest or weed control at 70 g/ha,[1]; [7],95 to 100%
same,pest or weed control at 140 g/ha,[1]; [7],95 to 100%
same,pest or weed control at 70 g/ha,[1]; [8],95 to 100%
same,pest or weed control at 140 g/ha,[1]; [8],95 to 100%
same,pest or weed control at 70 g/ha,[1]; [9],45 to 59%
same,pest or weed control at 140 g/ha,[1]; [9],45 to 59%
same,pest or weed control at 70 g/ha,[2]; [10],45 to 59%
same,pest or weed control at 140 g/ha,[2]; [10],45 to 59%
same,pest or weed control at 70 g/ha,[2]; [11],45 to 59%
same,pest or weed control at 140 g/ha,[2]; [11],45 to 59%
same,pest or weed control at 70 g/ha,[2]; [12],75 to 84%
same,pest or weed control at 140 g/ha,[2]; [12],75 to 84%
same,pest or weed control at 70 g/ha,[2]; [13],60 to 74%
same,pest or weed control at 140 g/ha,[2]; [13],75 to 84%
same,pest or weed control at 70 g/ha,[2]; [14],0 to 29%
same,pest or weed control at 140 g/ha,[2]; [14],0 to 29%
same,pest or weed control at 70 g/ha,[2]; [15],60 to 74%
same,pest or weed control at 140 g/ha,[2]; [15],60 to 74%
same,pest or weed control at 70 g/ha,[2]; [16],85 to 94%
same,pest or weed control at 140 g/ha,[2]; [16],85 to 94%
same,pest or weed control at 70 g/ha,[2]; [17],45 to 59%
same,pest or weed control at 140 g/ha,[2]; [17],60 to 74%
